Laboratory results as given in ChEMBL document CHEMBL5335773, “Synthesis and structure-activity relationship of new nicotinamide phosphoribosyltransferase inhibitors with antitumor activity on solid and haematological cancer” (Eur J Med Chem, 2023).

Key:
[1] = test system: MIA PaCa-2; test: cells; conditions: Homo sapiens, MIA PaCa-2, 72 h
[2] = test system: MIA PaCa-2; test: cells; conditions: Homo sapiens, MIA PaCa-2, 24 h
[3] = test system: ML-2; test: Cytotoxicity against human ML-2 cells assessed as inhibition of cell viability at 72 hrs by SRB assay; assay type: functional, cell-based; conditions: ML-2, 72 h
[4] = test system: RPMI-8226; test: Cytotoxicity against human RPMI-8226 cells assessed as inhibition of cell viability at 72 hrs by SRB assay; assay type: functional, cell-based; conditions: RPMI-8226, 72 h
[5] = test system: NAMALVA; test: Cytotoxicity against human NAMALVA cells assessed as inhibition of cell viability at 72 hrs by SRB assay; assay type: functional, cell-based
[6] = test system: NB-4; test: Cytotoxicity against human NB4 cells assessed as inhibition of cell viability at 72 hrs by SRB assay; assay type: functional, cell-based; conditions: NB-4, 72 h
[7] = test system: Jurkat; test: Cytotoxicity against human Jurkat cells assessed as inhibition of cell viability at 72 hrs by SRB assay; assay type: functional, cell-based
[8] = biological target: Nicotinamide phosphoribosyltransferase (Homo sapiens, UniProt P43490); test: Inhibition of full-length recombinant human NAMPT (2 to 491 residues) expressed in Escherichia coli using NAM as substrate preincubated for 5 mins followed by substrate addition measured after 15 mins by fluorescence based assay
Sequence of Nicotinamide phosphoribosyltransferase (P43490 whole entry, the tested form may be a part): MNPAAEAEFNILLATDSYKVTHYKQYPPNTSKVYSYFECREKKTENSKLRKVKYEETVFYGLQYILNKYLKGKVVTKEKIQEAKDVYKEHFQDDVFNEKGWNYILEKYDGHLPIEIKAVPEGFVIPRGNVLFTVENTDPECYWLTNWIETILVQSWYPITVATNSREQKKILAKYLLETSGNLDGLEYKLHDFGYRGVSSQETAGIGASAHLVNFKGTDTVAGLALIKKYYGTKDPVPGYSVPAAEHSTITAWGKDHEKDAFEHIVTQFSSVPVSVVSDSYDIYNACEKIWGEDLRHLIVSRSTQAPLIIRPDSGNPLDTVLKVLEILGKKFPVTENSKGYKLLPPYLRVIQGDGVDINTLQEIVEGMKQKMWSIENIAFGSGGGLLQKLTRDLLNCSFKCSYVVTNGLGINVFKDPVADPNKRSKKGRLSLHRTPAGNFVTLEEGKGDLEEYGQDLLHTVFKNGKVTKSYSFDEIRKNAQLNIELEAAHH

| SMILES | IC50 [1] | IC50 [2] | other results |
| --- | --- | --- | --- |
| N#C/N=C(\NCCCCC1CCN(C(=O)c2cc3ccccc3[nH]2)CC1)Nc1cccnc1 | 113 nM |  |  |
| O=C(/C=C/c1cccnc1)NCCCCC1CCN(C(=O)c2ccccc2)CC1 [DAPORINAD] | 2.4 nM | 0.34 nM | IC50 [3]: 0.24 nM; IC50 [4]: 0.76 nM; IC50 [5]: 0.37 nM; IC50 [6]: 2 nM; IC50 [7]: 0.73 nM |
| N#C/N=C(\NCCCCCCn1cc(CN(CCCN2CCOCC2)Cc2ccco2)nn1)Nc1ccncc1 | 25.8 nM | 2.36 nM |  |
| O=C(NCCCCCCCCn1cc(-c2cccnc2)nn1)c1cc2ccccc2[nH]1 | 549 nM |  |  |
| O=S(=O)(CCCCCCNC(=S)Nc1cccnc1)N(Cc1ccco1)C1CCCC1 | 16.4 nM | 0.43 nM | IC50 [3]: 3.1 nM; IC50 [4]: 20.1 nM; IC50 [5]: 4.23 nM; IC50 [8]: 69.1 nM |
| O=C(CCCCCCCn1cc(-c2cccnc2)nn1)n1cccc1 | 494 nM |  |  |
| O=C(NCCCCCCCCNC(=S)Nc1cccnc1)c1cc2ccccc2[nH]1 | 605 nM |  |  |
| N#C/N=C(\NCCCCCCCCNC(=O)c1cc2ccccc2[nH]1)Nc1cccnc1 | 81 nM |  |  |
| O=C(CCCCCCCNC(=S)Nc1cccnc1)n1cccc1 | 854 nM |  |  |
| O=C(c1cc2ccccc2[nH]1)N1CCC(CCCCNC(=S)Nc2cccnc2)CC1 | > 1000 nM |  |  |
| COc1ccc2[nH]c(C(=O)N3CCC(CCCCn4cc(-c5cccnc5)nn4)CC3)cc2c1 | 860 nM |  |  |
| O=C(CCCCCCCn1cc(-c2cccnc2)nn1)NCc1ccco1 | > 1000 nM |  |  |
| O=C(c1cc2ccccc2[nH]1)N1CCC(CCCCn2cc(-c3cccnc3)nn2)CC1 | 727 nM |  |  |
| O=C(CCCCCCCNC(=S)Nc1cccnc1)NCc1ccco1 | > 1000 nM |  |  |

The next lines start with results.

| IC50 [1] | IC50 [2] | SMILES | other results |
| --- | --- | --- | --- |
| > 1000 nM |  | N#C/N=C(\NCCCCCCC(=O)N(CCCN1CCOCC1)Cc1ccco1)N1Cc2ccccc2C1 |  |
| > 1000 nM |  | N#C/N=C(\NCCCCCCC(=O)N(Cc1ccc(Cl)cc1)Cc1ccco1)N1Cc2ccccc2C1 |  |
| 2.26 nM | 1.5 nM | N#C/N=C(\NCCCCCCS(=O)(=O)N(CCCN1CCOCC1)Cc1ccco1)Nc1ccncc1 |  |
| > 1000 nM |  | N#C/N=C(\NCCCCCCC(=O)N(Cc1ccco1)C1CCCC1)N1Cc2ccccc2C1 |  |
| 176 nM | 4.7 nM | N#C/N=C(\NCCCCCCS(=O)(=O)N(Cc1ccco1)C1CCCC1)Nc1ccccc1 |  |
| 3 nM | 1.43 nM | N#C/N=C(\NCCCCCCC(=O)N(CCCN1CCOCC1)Cc1ccco1)Nc1ccncc1 |  |
| 2.1 nM | 0.14 nM | N#C/N=C(\NCCCCCCC(=O)N(Cc1ccco1)c1ccc([N+](=O)[O-])cc1)Nc1ccncc1 | IC50 [3]: 0.32 nM; IC50 [4]: 2.13 nM; IC50 [5]: 1.39 nM |
| 1000 nM |  | N#C/N=C(\NCCCCCCS(=O)(=O)N(Cc1ccco1)C1CCCC1)Nc1ccc(N=[N+]=[N-])cc1 |  |
| 3 nM | 0.2 nM | N#C/N=C(\NCCCCCC(=O)N(Cc1ccco1)C1CCCC1)Nc1ccncc1 | IC50 [3]: 0.36 nM; IC50 [4]: 1.9 nM; IC50 [5]: 1.77 nM |
| 16.3 nM | 11.2 nM | N#C/N=C(\NCCCCCC(=O)N(CCCN1CCOCC1)Cc1ccco1)Nc1ccncc1 |  |
| 6.3 nM | 0.5 nM | N#C/N=C(\NCCCCCC(=O)N(Cc1ccco1)c1ccc(Cl)cc1)Nc1ccncc1 |  |
| 1.7 nM | 0.17 nM | N#C/N=C(\NCCCCCCC(=O)N(Cc1ccco1)c1ccc(Cl)cc1)Nc1ccncc1 |  |
| > 1000 nM |  | O=C(NCc1ccco1)c1ccc(NC(=O)N2Cc3ccccc3C2)cc1 |  |
| 738 nM |  | CCOC(=O)c1ccc(N/C(=N/C#N)NCCCCCCS(=O)(=O)N(Cc2ccco2)C2CCCC2)cc1 |  |
| 153 nM |  | O=C(CCCCCCNC(=S)Nc1cccnc1)N(Cc1ccco1)C1CCCC1 |  |
| > 1000 nM |  | N#C/N=C(\NCCCCCCC(=O)N(Cc1ccco1)C1CCCC1)Nc1ccccc1 |  |
| 4.5 nM | 2 nM | N#C/N=C(\NCCCCCCC(=O)N(CCCN1CCCC1)Cc1ccco1)Nc1ccncc1 |  |
| > 1000 nM |  | O=C(Nc1ccc(C(=O)N(Cc2ccco2)C2CCCC2)cc1)N1Cc2ccccc2C1 |  |
| > 1000 nM |  | N#C/N=C(\NCCCCCCCC(=O)NCc1ccco1)Nc1ccncc1 |  |
